Results on 17 compounds are retold here after patent US20210261512A1, “NOVEL COMPOUNDS” (INFLAZOME LIMITED, priority 2018, published 2021).

Series [1] deals with T1, NLRP3 (Homo sapiens, UniProt Q96P20). The series can be described thus: Human whole blood IL1β release assay. The format is cell-based. Conditions: LPS 1 μg/ml, nigericin 10 μM, IL-1β AlphaLisa, 10 μM top dose (Example 2: top dose of 30 μM), read-out: HWB IC50. The essentials:
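Healthy-donor heparinised human whole blood with 1 μg/ml LPS, compound (8-point half-log dilution, 10 μM top dose unless stated; 0.1% DMSO vehicle) for 3 h at 37 °C, then nigericin 10 μM final for 1 h. Supernatant IL-1β by AlphaLISA; IC50 from 4-parameter variable-slope fit.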
(In general: In Alpha technology, singlet oxygen from a donor bead excites a nearby acceptor bead.)

The nature of series [2]: PK, intravenous administration. The format is in vivo. Conditions: rat, plasma, male Sprague Dawley rats, dose about 1 mg/kg; for Vd: read-out: Vdss. The essentials: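 Male Sprague Dawley rats (6-9 weeks); IV dosing via tail vein as solution in DMSO:water or DMSO:PBS (10:90), oral dosing in 0.5% methylcellulose after overnight fasting. Plasma sampled at 8 time-points to 24 h; parameters derived from LC-MS/MS data.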

Series [3] deals with T1, NLRP3. The series can be described thus: THP-1 cells pyroptosis assay. Type of series: cell-based. Also noted: Seed THP-1 cells (25,000 cells/well) containing 1.0 μg/ml LPS; host or cells: THP-1. Conditions: LPS 1.0 μg/ml, nigericin 5 μM, resazurin readout, 10 μM top dose (Example 2: top dose of 30 μM). The essentials:
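THP-1 cells (25,000/well) primed with 1 μg/ml LPS in serum-free RPMI, treated with compound (8-point dilution, 10 μM top unless stated; 0.1% DMSO) 3 h at 37°C, then nigericin 5 μM 1 h. Viability read by resazurin (100 μM, 1-2 h) fluorescence; IC50 from 4-parameter fit.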

T1 sequence (Q96P20 whole entry): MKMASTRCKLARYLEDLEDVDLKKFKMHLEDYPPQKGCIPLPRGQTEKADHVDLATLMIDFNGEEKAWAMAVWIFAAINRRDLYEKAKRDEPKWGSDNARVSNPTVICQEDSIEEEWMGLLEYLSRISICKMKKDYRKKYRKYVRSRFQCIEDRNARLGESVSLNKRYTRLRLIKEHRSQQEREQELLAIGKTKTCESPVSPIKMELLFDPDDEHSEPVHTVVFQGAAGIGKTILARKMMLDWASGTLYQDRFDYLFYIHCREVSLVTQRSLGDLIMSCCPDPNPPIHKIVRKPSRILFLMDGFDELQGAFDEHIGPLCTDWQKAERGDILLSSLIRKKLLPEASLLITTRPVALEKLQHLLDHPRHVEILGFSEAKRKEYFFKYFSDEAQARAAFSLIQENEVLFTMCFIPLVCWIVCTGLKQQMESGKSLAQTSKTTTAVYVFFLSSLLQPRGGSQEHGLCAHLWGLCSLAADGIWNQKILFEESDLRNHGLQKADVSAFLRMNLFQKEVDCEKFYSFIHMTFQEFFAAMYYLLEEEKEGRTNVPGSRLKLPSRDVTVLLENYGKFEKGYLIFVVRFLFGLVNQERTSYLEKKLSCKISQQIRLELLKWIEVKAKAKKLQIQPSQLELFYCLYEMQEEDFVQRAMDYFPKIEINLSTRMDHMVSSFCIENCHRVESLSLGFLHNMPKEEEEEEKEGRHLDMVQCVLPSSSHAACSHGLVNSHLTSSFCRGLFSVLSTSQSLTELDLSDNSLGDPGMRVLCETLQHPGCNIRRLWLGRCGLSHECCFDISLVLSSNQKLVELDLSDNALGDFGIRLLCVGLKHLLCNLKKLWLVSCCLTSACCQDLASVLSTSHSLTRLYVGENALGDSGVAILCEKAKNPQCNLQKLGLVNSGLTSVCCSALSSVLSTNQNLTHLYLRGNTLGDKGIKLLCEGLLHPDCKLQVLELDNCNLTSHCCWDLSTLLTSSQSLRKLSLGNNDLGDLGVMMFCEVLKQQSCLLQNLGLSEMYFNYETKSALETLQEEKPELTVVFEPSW

Turning to `CS(=O)(=O)c1nnc(Nc2c3c(cc4c2CCC4)CCC3)[nH]1` [Example 75, N-(1,2,3,5,6,7-hexahydro-s-indacen-4-yl)-5-(methylsulfonyl)-4H-1,2,4-triazol-3-amine], on NLRP3 [1], the half-inhibitory concentration (IC50) is at most 10000 nM. Moreover, in series [2], the AUC was 1000 ng·h/mL, the clearance is 16.7 mL/min/kg, the half-life is 30 min and the Vd was found to be 0.56 L/kg. On NLRP3 [3], this compound gave a 50% inhibitory concentration (IC50) of at most 5000 nM.
For `CCN(CC)CCCS(=O)(=O)c1nnc(Nc2c(-c3ccnc(OC)c3)ccc3c2CCC3)[nH]1` [Example 76, 5-((3-(diethylamino)propyl)sulfonyl)-N-(5-(2-methoxypyridin-4-yl)-2,3-dihydro-1H-inden-4-yl)-4H-1,2,4-triazol-3-amine], the IC50 on NLRP3 [1] was at most 5000 nM. In series [2], the AUC amounted to 210 ng·h/mL, the clearance worked out at 79.4 mL/min/kg, the half-life was 54 min and the Vd came out at 2.48 L/kg. Also, at NLRP3 [3], the 50% inhibitory concentration (IC50) is at most 500 nM.
Turning to `CCN(CC)CCCS(=O)(=O)c1nnc(Nc2c(-c3ccnc(OC)c3)cc(F)cc2C(C)C)[nH]1` [Example 79, 5-((3-(diethylamino)propyl)sulfonyl)-N-(4-fluoro-2-isopropyl-6-(2-methoxypyridin-4-yl)phenyl)-4H-1,2,4-triazol-3-amine], on NLRP3 [1], the IC50 was at most 5000 nM. In addition, in series [2], the AUC turned out to be 277 ng·h/mL, the clearance was found to be 60 mL/min/kg, the half-life is 154 min and the Vd is 5.03 L/kg. In addition, the IC50 on NLRP3 [3] is at most 500 nM.
Turning to `CCN(CC)CCNS(=O)(=O)c1nnc(Nc2c3c(cc4c2CCC4)CCC3)[nH]1` [Example 81, N-(2-(diethylamino)ethyl)-5-((1,2,3,5,6,7-hexahydro-s-indacen-4-yl)amino)-4H-1,2,4-triazole-3-sulfonamide], the IC50 on NLRP3 [1] was at most 1000 nM. Further, in series [2], the area under the curve (AUC) came out at 278 ng·h/mL, the clearance worked out at 59.9 mL/min/kg, the half-life is 90 min and the Vd came out at 4.61 L/kg. The compound further came in with a half-inhibitory concentration (IC50) against NLRP3 [3] of at most 500 nM.
In the case of `CN(C)CCNS(=O)(=O)c1nnc(Nc2c3c(cc4c2CCC4)CCC3)[nH]1` [Example 94, N-(2-(dimethylamino)ethyl)-5-((1,2,3,5,6,7-hexahydro-s-indacen-4-yl)amino)-4H-1,2,4-triazole-3-sulfonamide], on NLRP3 [1], the IC50 was at most 1000 nM. Besides, in series [2], the AUC was 354 ng·h/mL, the clearance is 47.1 mL/min/kg, the half-life is 78 min and the Vd was 3.21 L/kg. The 50% inhibitory concentration (IC50) against NLRP3 [3] is at most 1000 nM.
With `CN(C)C1CCN(S(=O)(=O)c2nnc(Nc3c4c(cc5c3CCC5)CCC4)[nH]2)CC1` [Example 118, 1-((5-((1,2,3,5,6,7-hexahydro-s-indacen-4-yl)amino)-4H-1,2,4-triazol-3-yl)sulfonyl)-N,N-dimethylpiperidin-4-amine], the concentration for half-maximal inhibition (IC50) at NLRP3 [1] was at most 500 nM. For the same compound, in series [2], the exposure (AUC) is 307 ng·h/mL, the clearance worked out at 54.2 mL/min/kg, the half-life is 84 min and the Vd was determined as 4.01 L/kg. The IC50 against NLRP3 [3] is at most 500 nM.
With `CN(C)CC1CCN(S(=O)(=O)c2nnc(Nc3c4c(cc5c3CCC5)CCC4)[nH]2)C1` (stereo not drawn) [Example 119, 5-((3-((dimethylamino)methyl)pyrrolidin-1-yl)sulfonyl)-N-(1,2,3,5,6,7-hexahydro-s-indacen-4-yl)-4H-1,2,4-triazol-3-amine], at NLRP3 [1], the IC50 is at most 500 nM. Besides, in series [2], the AUC came out at 162 ng·h/mL, the clearance was determined as 106 mL/min/kg, the half-life was 156 min and the Vd was 10.1 L/kg. For the same compound, on NLRP3 [3], the half-maximal inhibitory concentration (IC50) was at most 500 nM.
Consider `CNC1CCN(S(=O)(=O)c2nnc(Nc3c4c(cc5c3CCC5)CCC4)[nH]2)CC1` [Example 130, 1-((5-((1,2,3,5,6,7-hexahydro-s-indacen-4-yl)amino)-4H-1,2,4-triazol-3-yl)sulfonyl)-N-methylpiperidin-4-amine], for which the half-maximal inhibitory concentration (IC50) on NLRP3 [1] was at most 5000 nM. In addition, in series [2], the AUC was 509 ng·h/mL, the clearance stood at 32.8 mL/min/kg, the half-life is 468 min and the Vd amounted to 10.6 L/kg. On NLRP3 [3], the IC50 is at most 1000 nM.
Take `CC(C)c1cc(F)cc(-c2ccncc2)c1Cc1nnc(S(=O)(=O)N2CCC(CN(C)C)C2)[nH]1` (stereo not drawn) [Example 153, 1-(1-((5-(4-fluoro-2-isopropyl-6-(pyridin-4-yl)benzyl)-4H-1,2,4-triazol-3-yl)sulfonyl)pyrrolidin-3-yl)-N,N-dimethylmethanamine]: the 50% inhibitory concentration (IC50) on NLRP3 [1] is at most 5000 nM. In series [2], the AUC was determined as 198 ng·h/mL, the clearance is 84.1 mL/min/kg, the half-life was 21.6 min and the Vd was found to be 2.66 L/kg. On NLRP3 [3], this compound displayed a concentration for half-maximal inhibition (IC50) of at most 500 nM.
In the case of `COc1cc(-c2cc(F)cc(C(C)C)c2Cc2nnc(S(=O)(=O)N3CCC(CN(C)C)C3)[nH]2)ccn1` (stereo not drawn) [Example 156, 1-(1-((5-(4-fluoro-2-isopropyl-6-(2-methoxypyridin-4-yl)benzyl)-4H-1,2,4-triazol-3-yl)sulfonyl)pyrrolidin-3-yl)-N,N-dimethylmethanamine], at NLRP3 [1], the IC50 is at most 5000 nM. In addition, in series [2], the AUC amounted to 193 ng·h/mL, the clearance stood at 103 mL/min/kg, the half-life was 24 min and the Vd was 2.95 L/kg. At NLRP3 [3], the concentration for half-maximal inhibition (IC50) was at most 1000 nM.
With `Cn1ccc(S(=O)(=O)c2nnc(Nc3c4c(cc5c3CCC5)CCC4)[nH]2)n1` [Example 176, N-(1,2,3,5,6,7-hexahydro-s-indacen-4-yl)-5-((1-methyl-1H-pyrazol-3-yl)sulfonyl)-4H-1,2,4-triazol-3-amine], on NLRP3 [1], the IC50 was at most 10000 nM. Besides, in series [2], the area under the curve (AUC) amounted to 814 ng·h/mL, the clearance worked out at 19.1 mL/min/kg, the half-life is 28.4 min and the Vd was 0.41 L/kg. The compound also displayed an IC50 against NLRP3 [3] of at most 1000 nM.
Consider `CN1CCC2(C1)CN(S(=O)(=O)c1nnc(Nc3c(-c4ccnc(OC(F)F)c4)ccc4c3CCO4)[nH]1)C2` [Example 212, N-(5-(2-(difluoromethoxy)pyridin-4-yl)-2,3-dihydrobenzofuran-4-yl)-5-((6-methyl-2,6-diazaspiro[3.4]octan-2-yl)sulfonyl)-4H-1,2,4-triazol-3-amine], for which, on NLRP3 [1], the concentration for half-maximal inhibition (IC50) was at most 500 nM. In series [2], the AUC came out at 216 ng·h/mL, the clearance stood at 76.1 mL/min/kg, the half-life is 11.4 min and the Vd was determined as 0.88 L/kg. On NLRP3 [3], this compound yielded a 50% inhibitory concentration (IC50) of at most 500 nM.
With `COc1cc(-c2ccc3c(c2Nc2nnc(S(=O)(=O)N4CC5(CCN(C)C5)C4)[nH]2)CCO3)ccn1` [Example 214, N-(5-(2-methoxypyridin-4-yl)-2,3-dihydrobenzofuran-4-yl)-5-((6-methyl-2,6-diazaspiro[3.4]octan-2-yl)sulfonyl)-4H-1,2,4-triazol-3-amine], the 50% inhibitory concentration (IC50) at NLRP3 [1] was at most 500 nM. Besides, in series [2], the AUC was 182 ng·h/mL, the clearance was 78.1 mL/min/kg, the half-life was 15 min and the Vd was 1.02 L/kg. Also, the half-maximal inhibitory concentration (IC50) against NLRP3 [3] is at most 500 nM.
Regarding `COc1cc(-c2ccc3c(c2Nc2nnc(S(=O)(=O)N4CC5(CCN(C)C5)C4)[nH]2)CCC3)ccn1` [Example 215, N-(5-(2-methoxypyridin-4-yl)-2,3-dihydro-1H-inden-4-yl)-5-((6-methyl-2,6-diazaspiro[3.4]octan-2-yl)sulfonyl)-4H-1,2,4-triazol-3-amine], the IC50 at NLRP3 [1] was at most 500 nM. For the same compound, in series [2], the area under the curve (AUC) came to 58 ng·h/mL, the clearance was found to be 121 mL/min/kg, the half-life is 31.2 min and the Vd is 2.86 L/kg. Further, on NLRP3 [3], the IC50 is at most 500 nM.
`COc1cc(-c2c(C)cc3c(c2Nc2nnc(S(=O)(=O)N4CCC(N(C)C)CC4)[nH]2)CCC3)ccn1` [Example 216, 1-((5-((5-(2-methoxypyridin-4-yl)-6-methyl-2,3-dihydro-1H-inden-4-yl)amino)-4H-1,2,4-triazol-3-yl)sulfonyl)-N,N-dimethylpiperidin-4-amine]: the half-maximal inhibitory concentration (IC50) at NLRP3 [1] was at most 1000 nM. Moreover, in series [2], the AUC is 224 ng·h/mL, the clearance is 72.3 mL/min/kg, the half-life was 131 min and the Vd turned out to be 6.41 L/kg. On NLRP3 [3], the IC50 is at most 500 nM.
In the case of `COc1cc(-c2ccc3c(c2Nc2nnc(S(=O)(=O)N4CCC(N(C)C)CC4)[nH]2)CCO3)ccn1` [Example 226, 1-((5-((5-(2-methoxypyridin-4-yl)-2,3-dihydrobenzofuran-4-yl)amino)-4H-1,2,4-triazol-3-yl)sulfonyl)-N,N-dimethylpiperidin-4-amine], the IC50 at NLRP3 [1] was at most 1000 nM. Besides, in series [2], the area under the curve (AUC) came out at 216 ng·h/mL, the clearance came to 77.2 mL/min/kg, the half-life was 46.8 min and the Vd was found to be 1.48 L/kg. Besides, the half-maximal inhibitory concentration (IC50) at NLRP3 [3] is at most 500 nM.
On to `COc1cc(-c2ccc3c(c2Nc2nnc(S(=O)(=O)N4CC[C@H](C(C)(C)O)C4)[nH]2)CCC3)ccn1` [Example 231, (S)-2-(1-((5-((5-(2-methoxypyridin-4-yl)-2,3-dihydro-1H-inden-4-yl)amino)-4H-1,2,4-triazol-3-yl)sulfonyl)pyrrolidin-3-yl)propan-2-ol], for which the IC50 on NLRP3 [1] was at most 1000 nM. Also, in series [2], the area under the curve (AUC) is 459 ng·h/mL, the clearance was found to be 36.3 mL/min/kg, the half-life is 19.6 min and the Vd is 0.494 L/kg. The IC50 against NLRP3 [3] is at most 500 nM.

As usually defined, the IC50 is the point on the concentration scale where inhibition reaches its midpoint. One may read the AUC as concentration integrated over time. In general, clearance refers to the rate of elimination divided by the concentration. The low end stands for inefficient removal, the high end for efficient removal. The term half-life denotes the time in which the quantity being followed falls by half. Low readings indicate fast loss, high ones slow loss.
